# Patent US8017620B2, “Dutpase inhibitors” (Medivir AB, priority 2004, dated 2011)
# Read-outs that look alike come from different tables or passages of the source.
# Legend:
# [1] = target: T1, Plasmodium falciparum dUTPase (Plasmodium falciparum, UniProt Q8II92); assay: Inhibition of Plasmodium falciparum dUTPase (malaria enzyme assay); type: biochemical
# T1 construct: made in house; host or cells: E. coli BL21 (DE3)
# T1 sequence (Q8II92 1-173): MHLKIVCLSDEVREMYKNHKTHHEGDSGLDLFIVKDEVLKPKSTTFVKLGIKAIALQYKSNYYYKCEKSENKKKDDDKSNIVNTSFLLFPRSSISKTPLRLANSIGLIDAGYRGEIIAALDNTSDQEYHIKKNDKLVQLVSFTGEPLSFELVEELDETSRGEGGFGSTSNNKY
# Method: Inhibition of Plasmodium falciparum dUTPase
# 2′-dUTP, was purchased from Pharmacia. MgCl2, BSA, and the pH indicator cresol red were from Sigma. The buffer N,N-bis(2-hydroxyethyl)glycine (BICINE) was obtained from USB (United States Biochemical), Ohio. All the concentrations of nucleotides were calculated spectrophotometrically (HP-8453, Hewlett Packard) at 280 nm, using the extinction coefficient (ε280 nm=1.75 ml mg^−1cm^−1). Other chemicals used in these experiments were of the highest quality available.
# Conserved motifs of the human dUTPase enzyme were used as query to identify the PFdut gene in the www.tigr.org database of the Plasmodium falciparum 3D7 strain. The entire coding sequence was amplified by the PCR using as template cDNA and as primers the oligonucleotides ATG-PFdut ([…]) and TGA-PFdut ([…]) which were designed so that NdeI and BamHI restriction sites were introduced at the 5′ and 3′ ends for convenient cloning in the expression vector pET11 (Stratagene). The amplified product was cloned into pGEMT (Promega) and propagated in E. coli XL1B cells. In order to confirm the correct sequence after amplification, sequencing was performed using an Applied Biosystems Automated Sequencer, at the Analytical Services of the Instituto de Parasitología y Biomedicina “López Neyra”. These Services also supplied the oligonucleotides designed for the sequencing
# Recombinant P. falciparum dUTPase was purified from E. coli BL21 (DE3) cells transformed with pET-PFdut. Pellets from a liter of culture were resuspended in a solution consisting of buffer A (20 mM MES pH 5.5, 50 mM NaCl, 1 mM DTT) plus the protease inhibitors 1 mM PMSF, 20 μg/ml leupeptin and 1 mM benzamidine. Purification was carried out in a cold room (4° C.). The soluble crude extract was obtained by sonication in a Vibra-cell (Sonics and Materials Inc. Danbury, Conn., USA) and centrifugation at 14000×g. The extract was loaded onto a phosphocellulose column (Whatman) pre-equilibrated with buffer A at a flow rate of 1 ml/min. After washing the column with 100 ml of buffer A, elution was performed using a linear NaCl gradient of 50 to 1000 mM. Peak fractions with a low concentration of contaminating protein, as judged by 15% SDS-PAGE gels, were pooled and then loaded and chromatographed on a Superdex 200 column at a flow rate of 0.5 ml/min. The column was equilibrated with buffer B (50 mM Bicine, 1 mM DTT, 10 mM MgCl2). Peak fractions were pooled and concentrated to about 5 mg/ml by ultrafiltration in a Centripep tube (Amicon) and stored at −80° C.
# Nucleotide hydrolysis was monitored by mixing enzyme and substrate with a rapid kinetic accessory (Hi-Tech Scientific) attached to a spectrophotometer (Cary 50) and connected to a computer for data acquisition and storage. Protons, released through the hydrolysis of nucleotides, were neutralised by a pH indicator in a weak buffered medium with similar pKa and monitored spectrophotometrically at the absorbance peak of the basic form of the indicator. Absorbance changes were kept within 0.1 units. The indicator/buffer pair used was cresol red/BICINE ([…], pH 8, 573 nm). The measurements were performed at 25° C., and the solutions were previously degassed. […] Indicator absorbance changes corresponding to complete hydrolysis of nucleotides were recorded in the computer, and the kinetic parameters Vmax and Kmapp (or slope) were calculated by fitting the data to the integrated Michaelis-Menten equation (Segel, 1975). […]
# [2] = target: T2, Human recombinant dUTPase (Homo sapiens, UniProt P33316); assay: Human dUTPase assay; type: biochemical; conditions: human enzyme versus Plasmodium falciparum enzyme
# T2 construct: made in house; host or cells: E. coli BL21 (DE3)
# T2 sequence (P33316 112-252 limits assumed): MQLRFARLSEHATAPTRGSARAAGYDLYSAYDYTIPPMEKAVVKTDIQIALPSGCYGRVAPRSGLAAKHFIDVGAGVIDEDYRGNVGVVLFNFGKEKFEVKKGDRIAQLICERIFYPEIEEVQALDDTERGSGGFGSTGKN
# Method: Human recombinant dUTPase was purified from E. coli BL21 (DE3) cells transformed with pETHudut (Dr. P. O. Nyman, Lund University). Purification was accomplished as described for the dUTPase above except that the last step in Superdex 200 was omitted. Likewise, conditions for enzyme assays were the same as described above except that the enzyme concentration was 50 nM.
# [3] = test system: P. falciparum; assay: Malaria whole cell assay (3H-hypoxanthine incorporation); type: cell-based; conditions: Plasmodium falciparum cell culture; read-out: ED50 (the source's name)
# Method: Two strains of P. falciparum are used in this study: The drug sensitive NF54 (an airport strain of unknown origin) and K1 (Thailand, chloroquine and pyrimethamine resistant). The strains are maintained in RPMI-1640 medium with 0.36 mM hypoxanthine supplemented with 25 mM HEPES, 25 mM NaHC03, neomycin (100 U/ml) and Albumax^R (lipid-rich bovine serum albumin) (GIBCO, Grand Island, N.Y.) (5 g/l), together with 5% washed human A+ erythrocytes. All cultures and assays are conducted at 37° C. under an atmosphere of 4% C02, 3% 02 and 93% N2. Cultures are kept in incubation chambers filled with the gas mixture. Subcultures are diluted to a parasitaemia of 0.1-0.5% and the medium changed daily.
# Antimalarial activity is assessed using an adaptation of the procedures described by Desjardins et al. (Antimicrob. Agents Chemother. 16(6):710-8, 1979), and Matile and Pink (In: Lefkovits, I. and Pernis, B. (Eds.). Immunological Methods. Academic Press, San Diego, pp. 221-234, 1990).
# After use the stocks are kept at −20° C. The compound is further diluted to the appropriate concentration using complete medium without hypoxanthine.
# Assays are performed in sterile 96-well microtiter plates, each well containing 200 μl of parasite culture (0.15% parasitemia, 2.5% hematocrit) with or without serial drug solutions. Seven 2-fold dilutions are used covering a range from 5 μg/ml 0.078 μg/ml.
# After 48 hours of incubation at 37° C., 0.5 μCi ^3H-hypoxanthine is added to each well. Cultures are incubated for a further 24 h before they are harvested onto glass-fiber filters and washed with distilled water. The radioactivity is counted using a Betaplate™ liquid scintillation counter (Wallac, Zurich, Switzerland). […] From the sigmoidal inhibition curves IC50 values are calculated.
# K1 strain is used. The compounds are tested at 7 concentrations (5000 to 78 ng/ml). Artemisinin and chloroquine are included as reference drugs.
# A new range of concentrations is chosen depending on the IC50 determined (e.g. 100 to 1.56 ng/ml) and the assay is carried out 2× independently.
# The standard drugs are chloroquine and artemisinin which are run in the same assay.
# [4] = target: Leishmania dUTPase (Leishmania major, UniProt O15826); conditions: Hidalgo-Zarco and González-Pacanowska 2001; cited from earlier work
# [5] = Plasmodium falciparum enzyme, read-out: Ki
# Leishmania dUTPase, sequence (O15826 entry or part of it): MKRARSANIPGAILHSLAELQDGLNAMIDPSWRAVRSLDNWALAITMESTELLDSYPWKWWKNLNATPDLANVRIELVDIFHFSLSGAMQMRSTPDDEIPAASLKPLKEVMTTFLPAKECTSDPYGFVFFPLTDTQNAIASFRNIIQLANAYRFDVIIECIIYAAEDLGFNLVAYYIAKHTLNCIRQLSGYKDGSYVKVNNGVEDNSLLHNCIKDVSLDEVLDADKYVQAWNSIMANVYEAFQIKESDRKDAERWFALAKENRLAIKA
Structure (SMILES),"Ki [1, 5]",SI (selectivity over the human enzyme) [2],EC50 [3],Ki [1],inhibition of Leishmania dUTPase [4]
O=c1ccn(CCCCNC(c2ccccc2)(c2ccccc2)c2ccccc2)c(=O)[nH]1,900 nM,1111,3800 nM,–,–
O=c1ccn(CCCCCNC(c2ccccc2)(c2ccccc2)c2ccccc2)c(=O)[nH]1,4290 nM,>233,2200 nM,–,–
O=c1ccn(COCCOC(c2ccccc2)(c2ccccc2)c2ccccc2)c(=O)[nH]1,–,25.3,900 nM,670 nM,–
O=c1ccn(CCCCOC(c2ccccc2)(c2ccccc2)c2ccccc2)c(=O)[nH]1,–,617,4900 nM,1620 nM,–
O=c1ccn(CCCCO[Si](c2ccccc2)(c2ccccc2)c2ccccc2)c(=O)[nH]1,–,226,430 nM,1690 nM,–
COc1ccc(C(OC[C@H]2O[C@@H](n3ccc(=O)[nH]c3=O)C[C@@H]2O)(c2ccccc2)c2ccc(OC)cc2)cc1 [5′-O-(4-4′-dimethoxytrityl)-2′-deoxyuridine],–,–,–,–,no inhibition
O=c1ccn([C@H]2C[C@H](O)[C@@H](COP(=O)(O)NP(=O)(O)OP(=O)(O)O)O2)c(=O)[nH]1 [α-β-imido-dUTP],–,–,–,–,Competitive inhibition
